# Reference: patent publication US20070275932A1, “Aryl, heteroaromatic and bicyclic aryl nitrone compounds, prodrugs and pharmaceutical compositions of the same to treat human disorders” (Renovis, Inc., priority 2003, published 2007)
# Assay: Free radical-scavenging/antioxidant assay (DPPH)
# Assay type: biochemical
# Settings: 50 μM DPPH in 80% methanol, absorbance at 520 nm, 24 h time point (steady state); read-out: EC50 (concentration at which a compound reduces by 50% the peak absorbance of DPPH at 520 nm)
# Experimental: Nitrone compounds of the present invention were tested for their free-radical scavenging/antioxidant activity in an in vitro assay that is accepted by those skilled in the art as a model for conditions involving the generation of free radicals. The assay is based on a reaction between a free-radical donor, 2,2-diphenyl-1-picrylhydrazyl (DPPH), and a radical scavenger/antioxidant to be tested for free-radical scavenging activity. Upon donation of the free-radical electron to the purported radical scavenger, the peak visible absorbance of DPPH (515-520 nm) decreases so that optical density readings at this part of the visual spectrum reflect the progression of the following reaction: DPPH∩+AH→DPPH-H+A∩ where AH is a hypothetical radical scavenger/antioxidant. The assay is based on a protocol originally detailed in Brand-Williams, W. et al., 1995, Use of a Free Radical Method to Evaluate Antioxidant Activity, Lebensm. Wiss. Technol., 28:25-30, with further modifications described in L. R. Fukumoto and G. Mazza, 2000, Assessing Antioxidant and Prooxidant Activities of Phenolic Compounds, J. Agric. Food Chem., 48:3597-3604.
# The antioxidant assay was performed using Perkin-Elmer 96-well, clear-bottom, black-wall plates (ordered from E & K Scientific Products) and a Tecan Safire absorbance plate reader. The positive controls were Trolox (6-hydroxy-2,5,7,8-tetramethylchromane-2-carboxylic acid, Sigma-Aldrich), BHA (2(3)-tert-butylhydroquinone monomethyl ether, Sigma-Aldrich), PBN (C-(phenyl)-N-(tert-butyl)nitrone, Sigma-Aldrich) and S-PBN (C-(2-sulfophenyl)-N-(tert-butyl)nitrone, sodium salt, prepared according to E. G. Janzen and R. V. Shetty, 1979, Tetrahedron Lett., 35: 3229-32), and the negative control (i.e., vehicle) was DMSO. In brief, 2 μL of 100×DMSO stock of the desired final concentration of each control or nitrone compound to be tested in the same batch was added to a separate well. To each well was then added 198 μL of a freshly made 50 μM DPPH (Sigma-Aldrich) solution in 80% methanol using a multi-channel pipette. The absorbance was immediately read on the plate reader at 520 nm and thereafter read periodically to assess kinetics until all reactions reached completion (i.e., steady state). Since the steady-state point was 24 h, the assay results are shown from the 24 h time point. The absorbance at 520 nm (OD) was plotted versus the concentrations of the controls and nitrone compounds to assess dose-response and interpolate the EC50 values of the controls and test compounds.
row,EC50 [µM],Compound
1,500 to 1000,"COC(=O)c1ccccc1/C=[N+](\[O-])C(C)(C)C [Example 1, N-(tert-Butyl)-C-[2-(methoxycarbonyl)phenyl]nitrone]"
2,500 to 1000,"COC(=O)c1ccccc1/C=[N+](\[O-])Cc1ccccc1 [Example 3, N-Benzyl-C-[2-(methoxycarbonyl)phenyl]nitrone]"
3,100 to 500,"COC(=O)c1c(/C=[N+](\[O-])C(C)(C)C)cc(OC)cc1OC [Example 4, N-(tert-Butyl)-C-[2-(methoxycarbonyl)-3,5-dimethoxyphenyl]nitrone]"
4,100 to 500,"COC(=O)c1c(/C=[N+](\[O-])C2CCCCC2)cc(OC)cc1OC [Example 5, N-Cyclohexyl-C-[2-(methoxycarbonyl)-3,5-dimethoxyphenyl]nitrone]"
5,100 to 500,"COC(=O)c1c(/C=[N+](\[O-])Cc2ccccc2)cc(OC)cc1OC [Example 6, N-Benzyl-C-[2-(methoxycarbonyl)-3,5-dimethoxyphenyl]nitrone]"
6,100 to 500,"CC(C)(C)/[N+]([O-])=C/c1ccccc1C(=O)O [Example 7, N-(tert-Butyl)-C-(2-carboxyphenyl)nitrone]"
7,10 to 100,"O=C(O)c1ccccc1/C=[N+](\[O-])C1CCCCC1 [Example 8, N-Cyclohexyl-C-(2-carboxyphenyl)nitrone]"
8,10 to 100,"O=C(O)c1ccccc1/C=[N+](\[O-])Cc1ccccc1 [Example 9, N-Benzyl-C-(2-carboxyphenyl)nitrone]"
9,500 to 1000,"COc1cc(/C=[N+](\[O-])C(C)(C)C)c(C(=O)O)c(OC)c1 [Example 10, N-(tert-Butyl)-C-(2-carboxy-3,5-dimethoxyphenyl)nitrone]"
10,10 to 100,"COc1cc(/C=[N+](\[O-])C2CCCCC2)c(C(=O)O)c(OC)c1 [Example 11, N-Cyclohexyl-C-(2-carboxy-3,5-dimethoxyphenyl)nitrone]"
11,10 to 100,"COc1cc(/C=[N+](\[O-])Cc2ccccc2)c(C(=O)O)c(OC)c1 [Example 12, N-Benzyl-C-(2-carboxy-3,5-dimethoxyphenyl)nitrone]"
12,> 1000,"CC(C)(C)/[N+]([O-])=C/c1ccccc1-n1ccnc1 [Example 14, N-(tert-Butyl)-C-[2-(imidazol-1-yl)phenyl]nitrone]"
13,> 1000,"[O-]/[N+](=C\c1ccccc1-n1ccnc1)C1CCCCC1 [Example 15, N-Cyclohexyl-C-[2-(imidazol-1-yl)phenyl]nitrone]"
14,> 1000,"[O-]/[N+](=C\c1ccccc1-n1ccnc1)Cc1ccccc1 [Example 16, N-Benzyl-C-[2-(imidazol-1-yl)phenyl]nitrone]"
15,> 1000,"CC(C)(C)/[N+]([O-])=C/c1ccccc1-n1cccn1 [Example 17, N-(tert-Butyl)-C-[2-(pyrazol-1-yl)phenyl]nitrone]"
16,> 1000,"[O-]/[N+](=C\c1ccccc1-n1cccn1)C1CCCCC1 [Example 18, N-Cyclohexyl-C-[2-(pyrazol-1-yl)phenyl]nitrone]"
17,> 1000,"[O-]/[N+](=C\c1ccccc1-n1cccn1)Cc1ccccc1 [Example 19, N-Benzyl-C-[2-(pyrazol-1-yl)phenyl]nitrone]"
18,100 to 500,"CC(C)(C)/[N+]([O-])=C/c1ccccc1N1CCOCC1 [Example 20, N-(tert-Butyl)-C-[2-(1-morpholino)phenyl]nitrone]"
19,100 to 500,"[O-]/[N+](=C\c1ccccc1N1CCOCC1)C1CCCCC1 [Example 21, N-Cyclohexyl-C-[2-(1-morpholino)phenyl]nitrone]"
20,> 1000,"[O-]/[N+](=C\c1ccccc1N1CCOCC1)Cc1ccccc1 [Example 22, N-Benzyl-C-[2-(1-morpholino)phenyl]nitrone]"
21,100 to 500,"CC(C)(C)/[N+]([O-])=C/c1ccccc1N1CCN(c2ccc(C(F)(F)F)cn2)CC1 [Example 23, N-(tert-Butyl)-C-{2-[4-(5-(trifluoromethyl)pyridin-2-yl)piperazin-1-yl]phenyl}nitrone]"
22,10 to 100,"[O-]/[N+](=C\c1ccccc1N1CCN(c2ccc(C(F)(F)F)cn2)CC1)C1CCCCC1 [Example 24, N-Cyclohexyl-C-{2-[4-(5-(trifluoromethyl)pyridin-2-yl)piperazin-1-yl]phenyl}nitrone]"

row,EC50 [µM],Compound
1,< 10,"[O-]/[N+](=C\c1ccccc1N1CCN(c2ccc(C(F)(F)F)cn2)CC1)Cc1ccccc1 [Example 25, N-Benzyl-C-{2-[4-(5-(trifluoromethyl)pyridin-2-yl)piperazin-1-yl]phenyl}nitrone]"
2,> 1000,"[O-]/[N+](=C\c1ccccc1Sc1ccc(Cl)cc1)C1CCCCC1 [Example 27, N-Cyclohexyl-C-[2-(4-chlorophenylthio)phenyl]nitrone]"
3,100 to 500,"[O-]/[N+](=C\c1ccccc1Sc1ccc(Cl)cc1)Cc1ccccc1 [Example 28, N-Benzyl-C-[2-(4-chlorophenylthio)phenyl]nitrone]"
4,> 1000,"O=[N+]([O-])c1ccc(SC2CCCC2)c(/C=[N+](\[O-])C2CCCCC2)c1 [Example 30, N-Cyclohexyl-C-[2-(cyclopentylthio)-5-nitrophenyl]nitrone]"
5,500 to 1000,"O=[N+]([O-])c1ccc(SC2CCCC2)c(/C=[N+](\[O-])Cc2ccccc2)c1 [Example 31, N-Benzyl-C-[2-(cyclopentylthio)-5-nitrophenyl]nitrone]"
6,> 1000,"CSc1ccc(/C=[N+](\[O-])C(C)(C)C)c(SC)c1 [Example 32, N-(tert-Butyl)-C-[2,4-bis(methylthio)phenyl]nitrone]"
7,> 1000,"CCSc1ccccc1/C=[N+](\[O-])C(C)(C)C [Example 33, N-(tert-Butyl)-C-[2-(ethylthio)phenyl]nitrone]"
8,> 1000,"CC(C)Sc1ccccc1/C=[N+](\[O-])C(C)(C)C [Example 34, N-(tert-Butyl)-C-[2-(isopropylthio)phenyl]nitrone]"
9,> 1000,"CSc1cc(C(F)(F)F)ccc1/C=[N+](\[O-])C(C)(C)C [Example 35, N-(tert-Butyl)-C-[2-(methylthio)-4-(trifluoromethyl)phenyl]nitrone]"
10,100 to 500,"CC(C)(C)/[N+]([O-])=C/c1cc([N+](=O)[O-])ccc1Sc1ccccn1 [Example 36, N-(tert-Butyl)-C-[5-nitro-2-(pyridin-2-ylthio)phenyl]nitrone]"
11,10 to 100,"O=[N+]([O-])c1ccc(Sc2ccccn2)c(/C=[N+](\[O-])C2CCCCC2)c1 [Example 37, N-Cyclohexyl-C-[5-nitro-2-(pyridin-2-ylthio)phenyl]nitrone]"
12,> 1000,"COC(=O)c1[nH]c2ccccc2c1/C=[N+](\[O-])C(C)(C)C [Example 38, N-(tert-Butyl)-C-[2-(methoxycarbonyl)-1H-indol-3-yl]nitrone]"
13,> 1000,"COC(=O)c1[nH]c2ccccc2c1/C=[N+](\[O-])C1CCCCC1 [Example 39, N-Cyclohexyl-C-[2-(methoxycarbonyl)-1H-indol-3-yl]nitrone]"
14,> 1000,"COC(=O)c1[nH]c2ccccc2c1/C=[N+](\[O-])Cc1ccccc1 [Example 40, N-Benzyl-C-[2-(methoxycarbonyl)-1H-indol-3-yl]nitrone]"
15,10 to 100,"CC(C)(C)/[N+]([O-])=C/c1sccc1C(=O)O [Example 41, N-(tert-Butyl)-C-(3-carboxythiophen-2-yl)nitrone]"
16,100 to 500,"O=C(O)c1ccsc1/C=[N+](\[O-])C1CCCCC1 [Example 42, N-Cyclohexyl-C-(3-carboxythiophen-2-yl]nitrone]"
17,> 1000,"Cc1ccc(Sc2ncccc2/C=[N+](\[O-])C(C)(C)C)cc1 [Example 43, N-(tert-Butyl)-C-[2-(4-methylphenylthio)pyridin-3-yl]nitrone]"
18,> 1000,"CC(C)(C)/[N+]([O-])=C/c1cccnc1N1CCOCC1 [Example 46, N-(tert-Butyl)-C-[2-(1-morpholino)pyridin-3-yl]nitrone]"
19,> 1000,"[O-]/[N+](=C\c1cccnc1N1CCOCC1)C1CCCCC1 [Example 47, N-Cyclohexyl-C-[2-(1-morpholino)pyridin-3-yl]nitrone]"
20,> 1000,"[O-]/[N+](=C\c1cccnc1N1CCOCC1)Cc1ccccc1 [Example 48, N-Benzyl-C-[2-(1-morpholino)pyridin-3-yl]nitrone]"
21,500 to 1000,"CSc1nc2ccccc2cc1/C=[N+](\[O-])C(C)(C)C [Example 49, N-(tert-Butyl)-C-[2-(methylthio)quinolin-3-yl]nitrone]"
22,> 1000,"CC(C)(C)C(=O)Nc1cccc(/C=[N+](\[O-])C(C)(C)C)n1 [Example 51, N-(tert-Butyl)-C-[6-(2,2-dimethylpropanamido)pyridin-2-yl]nitrone]"

row,Compound,EC50 [µM]
1,"2(3)-tert-butylhydroquinone monomethyl ether [BHA, reference compound]",< 10
